In one data set the target is T1, PODANSg2158 (Podospora anserina, UniProt B2AM55).
T1 sequence (B2AM55 1-430): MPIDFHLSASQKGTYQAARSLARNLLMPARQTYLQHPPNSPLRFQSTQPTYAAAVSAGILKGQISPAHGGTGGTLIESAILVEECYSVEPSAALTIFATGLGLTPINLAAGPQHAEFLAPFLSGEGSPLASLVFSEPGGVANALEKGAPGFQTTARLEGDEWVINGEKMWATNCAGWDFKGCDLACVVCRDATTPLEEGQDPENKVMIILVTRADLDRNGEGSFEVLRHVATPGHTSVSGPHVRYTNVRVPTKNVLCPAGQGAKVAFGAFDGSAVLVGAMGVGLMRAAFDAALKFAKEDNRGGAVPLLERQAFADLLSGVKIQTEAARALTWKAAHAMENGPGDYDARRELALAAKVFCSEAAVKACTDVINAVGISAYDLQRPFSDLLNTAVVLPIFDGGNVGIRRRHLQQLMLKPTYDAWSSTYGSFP
In words: X-ray crystal structure, […] Å. Conditions: wild-type enzyme; FAD in each of four subunits; pH 6 crystals. The format is binding.

Another data set has as its target Asp402 (UniProt position 402, CYPLFDGGNIG). The data set can be described thus: kinetics. The note with it: free enzyme; substrate nitroethane; cited from earlier work.

In the case of `Cc1cc2nc3c(=O)[nH]c(=O)nc-3n(C[C@H](O)[C@H](O)[C@H](O)COP(=O)(O)OP(=O)(O)OC[C@H]3O[C@@H](n4cnc5c(N)ncnc54)[C@H](O)[C@@H]3O)c2cc1C` [FAD], on PODANSg2158, the “X-ray crystal structure, 2.0 Å” value is on record as “FAD could be clearly identified in each of the subunits”.
Take “Nitroalkane oxidase (NAO) (Fusarium oxysporum)”: the pKa in the data set with Asp402 is on record as 6.9.
